For the experiment, the target named is human PAD4 (hPAD4) (Homo sapiens (Human), UniProt Q9UM07). The experiment can be described thus: RFMS Human PAD4 Functional Assay 1. The class given is biochemical. The settings on record: RFMS assay 1; 5 nM hPAD4, 250 μM BAEE substrate, 50 μM calcium, 37° C. Put shortly:
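Recombinant hPAD4 (5 nM) was preincubated with compound (top 50 μM, 0.5% DMSO) for 30 min at 37 °C, then reacted with 250 μM BAEE for 90 min at 37 °C in pH 7.5 HEPES buffer with 50 μM calcium and 5 μM TPEN. Product was derivatized with phenyl glyoxal and quantified by RapidFire MS.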

human PAD4 (hPAD4), sequence (Q9UM07 whole entry): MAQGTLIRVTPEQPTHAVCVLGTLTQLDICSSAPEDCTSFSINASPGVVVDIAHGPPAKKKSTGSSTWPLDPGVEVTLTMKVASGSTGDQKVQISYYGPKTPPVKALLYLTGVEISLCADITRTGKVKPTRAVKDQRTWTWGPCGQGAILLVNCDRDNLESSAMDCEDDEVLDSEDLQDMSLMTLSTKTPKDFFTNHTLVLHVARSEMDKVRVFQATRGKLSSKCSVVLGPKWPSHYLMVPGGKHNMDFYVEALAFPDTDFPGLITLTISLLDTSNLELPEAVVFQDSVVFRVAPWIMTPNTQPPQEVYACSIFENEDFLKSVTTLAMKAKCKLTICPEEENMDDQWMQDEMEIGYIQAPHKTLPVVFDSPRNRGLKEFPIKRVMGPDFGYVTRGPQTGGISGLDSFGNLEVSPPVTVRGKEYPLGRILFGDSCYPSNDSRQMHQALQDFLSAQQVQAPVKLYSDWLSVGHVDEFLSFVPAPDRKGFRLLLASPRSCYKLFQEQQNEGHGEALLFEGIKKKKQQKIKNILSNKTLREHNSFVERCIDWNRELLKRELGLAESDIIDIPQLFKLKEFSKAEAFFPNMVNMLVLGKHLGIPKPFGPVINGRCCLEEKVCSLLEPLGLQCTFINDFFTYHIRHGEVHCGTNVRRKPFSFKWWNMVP

For the compound `Cc1c(-c2cc3ccc(-c4ccc5cn[nH]c5c4)nc3n2CC2CC2)nn2cc(C(=O)N3C[C@H](N)C[C@@H](F)C3)ccc12` [Example 321, (3R,5R)-1-{2-[1-(Cyclopropylmethyl)-6-(1H-indazol-6-yl)-1H-pyrrolo[2,3-b]pyridin-2-yl]-3-methylpyrazolo[1,5-a]pyridine-6-carbonyl}-5-fluoropiperidin-3-amine], the IC50 amounted to 15000 nM.
The value for `COC(=O)N1CCC(c2cccc3cc(-c4nn5cc(C(=O)N6CC7CCC6[C@@H]7N)ccc5c4C)n(CC4CC4)c23)CC1` (stereo partly drawn) [Example 470, Methyl 4-(2-(6-((7R)-7-amino-2-azabicyclo[2.2.1]heptane-2-carbonyl)-3-methylpyrazolo[1,5-a]pyridin-2-yl)-1-(cyclopropylmethyl)-1H-indol-7-yl)piperidine-1-carboxylate] was 10 nM; that for `Cc1c(-c2cc3cccc(C4CCN(C(=O)C5CC(O)(C(F)(F)F)C5)CC4)c3n2CC2CC2)nn2cc(C(=O)N3CCC[C@@H](N)C3)ccc12` (mixture of isomers) [Example 456, (R)-(3-aminopiperidin-1-yl)(2-(1-(cyclopropylmethyl)-7-(1-(3-hydroxy-3-(trifluoromethyl)cyclobutane-1-carbonyl)piperidin-4-yl)-1H-indol-2-yl)-3-methylpyrazolo[1,5-a]pyridin-6-yl)methanone] was 30 nM; that for `Cc1c(-c2cc3ccc(N4CCC(N(C)S(C)(=O)=O)CC4)cc3n2CC2CC2)nn2cc(C(=O)N3C[C@H](N)C[C@@H](F)C3)ccc12` [Example 354, N-[1-(2-{6-[(3R,5R)-3-Amino-5-fluoropiperidine-1-carbonyl]-3-methylpyrazolo[1,5-a]pyridin-2-yl}-1-(cyclopropylmethyl)-1H-indol-6-yl)piperidin-4-yl]-N-methylmethanesulfonamide] was 150 nM.
On to `CO[C@H](C)C(=O)N1CC(c2cccc3cc(-c4nn5cc(C(=O)N6C[C@H](N)C[C@@H](F)C6)ccc5c4C)n(CC4CC4)c23)C1` [Example 540, (R)-1-(3-(2-(6-((3R,5R)-3-Amino-5-fluoropiperidine-1-carbonyl)-3-methylpyrazolo[1,5-a]pyridin-2-yl)-1-(cyclopropylmethyl)-1H-indol-7-yl)azetidin-1-yl)-2-methoxypropan-1-one], for which the IC50 turned out to be 1100 nM.
On to `COc1nc(C(=O)N2CC3CCC2[C@@H]3N)cn2nc(-c3cc4cccnc4n3CC3CC3)c(C)c12` (stereo partly drawn) [Example 115, ((7R)-7-Amino-2-azabicyclo[2.2.1]heptan-2-yl)(2-(1-(cyclopropylmethyl)-1H-pyrrolo[2,3-b]pyridin-2-yl)-4-methoxy-3-methylpyrazolo[1,5-a]pyrazin-6-yl)methanone], for which the IC50 was determined as 3370 nM.
The figure for `Cc1c(-c2cc3ccc(N4CCC[C@@H](O)C4)nc3n2CC2CC2)nn2cc(C(=O)N3CC4CCC3[C@@H]4N)ccc12` (stereo partly drawn) [Example 78, ((7R)-7-Amino-2-azabicyclo[2.2.1]heptan-2-yl)(2-(1-(cyclopropylmethyl)-6-((R)-3-hydroxypiperidin-1-yl)-1H-pyrrolo[2,3-b]pyridin-2-yl)-3-methylpyrazolo[1,5-a]pyridin-6-yl)methanone] is 143 nM.
Consider `Cc1c(-c2cc3ccnc(OCC4CNC(=O)C4)c3n2CC2CC2)nn2cc(C(=O)N3CCC[C@@H](N)C3)ccc12` (single isomer, unassigned; isomer 1) [Example 618], for which the IC50 is 50 nM.
The value for `Cc1c(-c2cc3cccc(OCCn4ccnc4)c3n2CC2CC2)nn2cc(C(=O)N3CCC[C@@H](N)C3)ccc12` [Example 575, (R)-(2-(7-(2-(1H-lmidazol-1-yl)ethoxy)-1-(cyclopropylmethyl)-1H-indol-2-yl)-3-methylpyrazolo[1,5-a]pyridin-6-yl)(3-aminopiperidin-1-yl)methanone] was 60 nM; that for `Cc1c(-c2cc3cccc(OCCn4ccnc4)c3n2CC2CC2)nn2cc(C(=O)N3C[C@H](N)C[C@@H](F)C3)ccc12` [Example 574, (2-(7-(2-(1H-Imidazol-1-yl)ethoxy)-1-(cyclopropylmethyl)-1H-indol-2-yl)-3-methylpyrazolo[1,5-a]pyridin-6-yl)((3R,5R)-3-amino-5-fluoropiperidin-1-yl)methanone] was 20 nM; that for `COc1cc(C(=O)N2CCC[C@@H](N)C2)cn2nc(-c3cc4cccc(OCC5CC(=O)N(C)C5)c4n3CC3CC3)c(C)c12` (single isomer, unassigned) [Example 551] was 160 nM.
Regarding `COc1cc(C(=O)N2C[C@H](N)C[C@@H](F)C2)cc2oc(-c3cc4ccccc4n3CC3CC3)c(C)c12` [Example 161, ((3R,5R)-3-Amino-5-fluoropiperidin-1-yl)(2-(1-(cyclopropylmethyl)-1H-indol-2-yl)-4-methoxy-3-methylbenzofuran-6-yl)methanone], the IC50 was found to be 487 nM.
The value for `COC(=O)N(C)C1CCN(c2ccc3cc(-c4nn5cc(C(=O)N6CCC[C@@H](N)C6)cc(F)c5c4C)n(CC4CC4)c3n2)CC1` [Example 272, Methyl N-[1-(2-{6-[(3R)-3-aminopiperidine-1-carbonyl]-4-fluoro-3-methylpyrazolo[1,5-a]pyridin-2-yl}-1-(cyclopropylmethyl)-1H-pyrrolo[2,3-b]pyridin-6-yl)piperidin-4-yl]-N-methylcarbamate] was 3810 nM; that for `Cc1c(-c2cc3ccc(-c4ccc5c(c4)C(=O)NC5)nc3n2CC2CC2)nn2cc(C(=O)N3CC4CCC3[C@@H]4N)ccc12` (stereo partly drawn) [Example 65, 6-(2-(6-((7R)-7-Amino-2-azabicyclo[2.2.1]heptane-2-carbonyl)-3-methylpyrazolo[1,5-a]pyridin-2-yl)-1-(cyclopropylmethyl)-1H-pyrrolo[2,3-b]pyridin-6-yl)isoindolin-1-one] was 25 nM.
The figure for `COc1cc(C(=O)N2CCC[C@@H](N)C2)cn2nc(-c3cc4cccc(OCC5CNC(=O)C5)c4n3CC3CC3)c(C)c12` (single isomer, unassigned) [Example 562] is 140 nM; for `CC(=O)N1CCC(c2cc(F)cc3cc(-c4nn5cc(C(=O)N6C[C@H](N)C[C@@H](F)C6)ccc5c4C)n(CC4CC4)c23)CC1` [Example 507, 1-(4-(2-(6-((3R,5R)-3-Amino-5-fluoropiperidine-1-carbonyl)-3-methylpyrazolo[1,5-a]pyridin-2-yl)-1-(cyclopropylmethyl)-5-fluoro-1H-indol-7-yl)piperidin-1-yl)ethan-1-one] it is 170 nM.
The value for `COC1CCN(c2ccc3cc(-c4oc5cc(C(=O)N6CC7CCC6[C@@H]7N)ccc5c4C)n(CC4CC4)c3c2)CC1` (stereo partly drawn) [Example 189, ((7R)-7-Amino-2-azabicyclo[2.2.1]heptan-2-yl)(2-(1-(cyclopropylmethyl)-6-(4-methoxypiperidin-1-yl)-1H-indol-2-yl)-3-methylbenzofuran-6-yl)methanone] was 30 nM; that for `COc1cc(C(=O)N2CC3CCC2[C@@H]3N)cn2nc(-c3cc4ccc(-c5ccc6c(c5)C(=O)NC6)cc4n3CC3CC3)c(C)c12` (stereo partly drawn) [Example 23, 6-(2-(6-((7R)-7-Amino-2-azabicyclo[2.2.1]heptane-2-carbonyl)-4-methoxy-3-methylpyrazolo[1,5-a]pyridin-2-yl)-1-(cyclopropylmethyl)-1H-indol-6-yl)isoindolin-1-one] was 108 nM; that for `COc1cc(C(=O)N2C[C@H](N)C[C@@H](F)C2)cn2nc(-c3cc4ccnc(OCCn5ccnc5)c4n3CC3CC3)c(C)c12` [Example 597, (2-(7-(2-(1H-Imidazol-1-yl)ethoxy)-1-(cyclopropylmethyl)-1H-pyrrolo[2,3-c]pyridin-2-yl)-4-methoxy-3-methylpyrazolo[1,5-a]pyridin-6-yl)((3R,5R)-3-amino-5-fluoropiperidin-1-yl)methanone] was 10 nM.
For the compound `Cc1c(-c2cc3ccc(C(C)(O)C(F)(F)F)cc3n2CC2CC2)nn2cc(C(=O)N3CC4CCC3[C@@H]4N)ccc12` (stereo partly drawn) [Example 101, ((7R)-7-Amino-2-azabicyclo[2.2.1]heptan-2-yl)(2-(1-(cyclopropylmethyl)-6-(1,1,1-trifluoro-2-hydroxypropan-2-yl)-1H-indol-2-yl)-3-methylpyrazolo[1,5-a]pyridin-6-yl)methanone], the IC50 is 11 nM.
The figure for `Cc1c(-c2cc3cc(F)cc(C4CCN(C(=O)C5CCCCO5)CC4)c3n2CC2CC2)nn2cc(C(=O)N3C[C@H](N)C[C@@H](F)C3)ccc12` (mixture of isomers) [Example 509, ((3R,5R)-3-Amino-5-fluoropiperidin-1-yl)(2-(1-(cyclopropylmethyl)-5-fluoro-7-(1-(tetrahydro-2H-pyran-2-carbonyl)piperidin-4-yl)-1H-indol-2-yl)-3-methylpyrazolo[1,5-a]pyridin-6-yl)methanone] is 350 nM.
The figure for `CC(=O)N1CCC(c2cc(F)cc3cc(-c4nn5cc(C(=O)N6CCC[C@@H](N)C6)ccc5c4C)n(CC4CC4)c23)CC1` [Example 506, (R)-1-(4-(2-(6-(3-Aminopiperidine-1-carbonyl)-3-methylpyrazolo[1,5-a]pyridin-2-yl)-1-(cylcopropylmethyl)-5-fluoro-1H-indol-7-yl)piperidin-1-yl)ethan-1-one] is 70 nM; for `COC1CN(c2ccc3cc(-c4nn5cc(C(=O)N6CC7CCC6[C@@H]7N)cc(F)c5c4C)n(CC4CC4)c3n2)C1` (stereo partly drawn) [Example 50, ((7R)-7-Amino-2-azabicyclo[2.2.1]heptan-2-yl)(2-(1-(cyclopropylmethyl)-6-(3-methoxyazetidin-1-yl)-1H-pyrrolo[2,3-b]pyridin-2-yl)-4-fluoro-3-methylpyrazolo[1,5-a]pyridin-6-yl)methanone] it is 74 nM; for `COc1cc(C(=O)N2C[C@H](N)C[C@@H](F)C2)cc2oc(-c3cc4ccc(-c5cccc(O)c5F)cc4n3CC3CC3)c(C)c12` [Example 163, ((3R,5R)-3-Amino-5-fluoropiperidin-1-yl)(2-(1-(cyclopropylmethyl)-6-(2-fluoro-3-hydroxyphenyl)-1H-indol-2-yl)-4-methoxy-3-methylbenzofuran-6-yl)methanone] it is 5590 nM.

One may read the IC50 as the concentration at which inhibition is half-maximal.

For the origin of these results see patent US12473304B2, “Heterocyclic PAD4 inhibitors” (BRISTOL-MYERS SQUIBB COMPANY, priority 2020, dated 2025).
